Reference: publication PMC12573178, “Substrate-Guided Development of HDAC11-Selective Inhibitors Featuring α‑Amino Amide Zinc-Binding Groups” (ACS Omega, 2025)
Entries after “also recorded” stand apart in the source; their conditions may differ.

Legend:
[1] = Compound stability in HEK293 cell lysate; assay type: in vitro ADME; settings: HEK293 cell lysate (1 mg/ml), 37 °C, 150 μM 31, after 24 h
Description: (§1) H Stability and permeability of 31 […]
(§2) stability was performed as described 21. Briefly, 400 µl of human serum or cell lysate from HEK293 cells (1 mg/ml) were incubated at 37 °C with 150 μM of 31 with 5% (v/v) DMSO. Samples of 45 µl were taken out at different time points and quenched with 50 µl of aqueous urea (6 M) and 100 µl of ACN.
(§3) Following centrifugation, 2 µl of a 2% (m/v) K 2CO3 solution in H2O and 1.5 µl of a 0.2 M Fmoc-OSu in ACN were added to the samples, which were then shaken at 1000 rpm for two hours at room temperature. This enabled the quantification of the residual amount of the compound via UPLC-UV/VIS at 260 nm. Compound peak areas were integrated. The experiments were performed in triplicate.
(§4) After 24h, 7% of 31 remained […]
(§5) detectable in cell lysate, and 20 % of 31 were still present in human serum (Figure S 38). […]
(§6) shown as mean values relative to the peak intensity at 0 h. Error bars represent the SD of three replicates.
(§7) For cell permeability studies, 40 µM of 31 were incubated with HEK293 cells in DMEM medium supplemented with 10 % FCS at 37°C overnight. The cells were harvested, washed extensively with ice-cold PBS and lysed in RIPA buffer. The sample was diluted 1:1 (v/v) with a solution of ACN : H 2O (1:1 )) before analyzing via UPLC-MS. […]

[2] = Compound stability in human serum; assay type: in vitro ADME; settings: 37 °C, 150 μM 31, after 24 h
Description: as §1, §2, §3, §4, §5, §6, §7

HEK293 cells [3] = assay: Metabolic labeling with Alk-14, CuAAC with Cy3-azide, in-gel fluorescence (global fatty-acylation level); assay type: cell-based; settings: Alk-14 25 μM, 31 20 μM, 24 h
HEK293 cells [4] = assay: Cell permeability / uptake, UPLC-MS of cell lysate; assay type: cell-based; settings: 40 µM 31, 37 °C overnight, detected by mass spectrometry in cell lysate
Description: as §1, §2, §3, §4, §5, §6, §7
B Mass spectrum of the peak detected at 3.62 […]

- compound remaining [1]: 7%
- compound remaining [2]: 20%
SMILES: CCCCCCCCCCCCSC[C@@H](N)C(=O)NCCCC[C@@H]1NC(=O)[C@H](CCC(N)=O)NC1=O [Compound 31]
- In-gel fluorescence signal (protein fatty acylation) (HEK293 cells [3]): moderately increased the fluorescence signal
- Uptake by HEK293 cells (HEK293 cells [4]): uptake of compound 31 by HEK293 cells; also recorded: showed uptake by HEK293 cells
